# According to US20240191273A1, “ANTHOCYANIN BIOPRODUCTION IN A CELL-FREE MANUFACTURING SYSTEM” (DEBUT BIOTECHNOLOGY, INC., priority 2021, published 2024):
# Columns and labels:
# [1] = stability of cyanidin in solution; assay type: physicochemical
# [2] = solubility of cyanidin in water; assay type: physicochemical
smiles,measurement,setting,value
Oc1cc(O)c2cc(O)c(-c3ccc(O)c(O)c3)[o+]c2c1 [cyanidin],stability in water,[1]; in water at 49 mg/L,degrade within minutes
same,pH of highest stability,[1]; pH of the solution,< 5.0
same,solubility,[2],49 µg/mL
